Reference: patent publication US20100062131A1, “FLAVAN-3-OL CONTAINING FOODSTUFFS” (CONOPCO, INC., D/B/A UNILEVER, priority 2008, published 2010)

Target: T1, human bitter receptor TAS2R39 (Homo sapiens, UniProt P59534)
T1 construct: expressed in transfected cells; host or cells: HEK293 (tetracycline/doxycycline-inducible expression; blasticidin, geneticin and hygromycin selection)
T1 sequence (P59534 1-338): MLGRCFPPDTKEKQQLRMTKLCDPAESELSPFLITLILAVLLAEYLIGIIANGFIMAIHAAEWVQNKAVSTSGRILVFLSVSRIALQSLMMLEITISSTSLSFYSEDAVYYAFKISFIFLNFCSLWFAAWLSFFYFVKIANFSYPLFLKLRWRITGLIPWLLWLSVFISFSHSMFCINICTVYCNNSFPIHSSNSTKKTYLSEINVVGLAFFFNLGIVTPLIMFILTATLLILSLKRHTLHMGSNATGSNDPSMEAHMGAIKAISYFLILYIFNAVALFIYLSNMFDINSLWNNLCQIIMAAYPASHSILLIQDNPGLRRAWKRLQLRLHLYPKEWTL
Experiment: Inhibition of ECG stimulation of TAS2R39, intracellular calcium (Fluo4-AM fluorescence) assay
Type: cell-based
Settings: for % inhibition of TAS2R39: HEK293 cells expressing TAS2R39, test solution 0.5 mM ECG and 10 mM test compound in Tyrodes buffer, percentage reduction of ΔF vs ECG alone; for effectiveness as inhibitor of TAS2R39 compared with gallic acid: comparison of % inhibition in Table 1 with gallic acid
Excerpt: Activation of the bitter receptor TAS2R39 causes the release of calcium from the endoplasmic reticulum of those cells containing the receptor. Therefore, changes in calcium levels within cells expressing TAS2R39 serves as a proxy marker for the activity of the receptor. An assay was used to assess the stimulation of TAS2R39 by the flavan-3-ol epicatechin gallate (ECG) and to assess the inhibition of this stimulation of TAS2R39 through the use of various compounds as follows:
HEK293 cells expressing the human bitter receptor TAS2R39 and a G-protein that allows coupling to a calcium readout system were maintained in Dulbecco's Modified Eagle's Medium (DMEM) containing DMEM and 10% tetracycline-free fetal bovine serum (Cambrex) supplemented with blasticidin (5 μg/ml) geneticin (400 μg/ml) and hygromycin (100 μg/ml). Cells were grown and maintained at 37° C./5% CO2.
Cells were cultured in a 75 cm^2 flask, harvested by trypsinisation and resuspended in DMEM medium. 100 μl of cells per well were added to a poly-L-lysine coated μClear 96-well plate, and incubated overnight. Expression of the TAS2R39 gene was then induced by the addition of 100 μl DMEM medium containing 0.5 μg/ml doxycyclin. After another 24-30 hrs the medium was removed and the cells were loaded for 1 hour with 50 μl Tyrodes buffer (140 mM NaCl, 5 mM KCl, 10 mM glucose, 1 mM CaCl2.2H2O, 1 mM MgCl2.6H2O, 20 mM HEPES pH 7.4 (Sigma P8761)) containing 2.5 μM of the fluorescent marker of calcium, Fluo4-AM, followed by a 1-hr incubation at 37° C. The cells were then washed with Tyrodes buffer and finally taken up in 100 μl, Tyrodes buffer.
Test solutions containing 0.5 mM ECG and 10 mM of the test compounds, dissolved in Tyrodes buffer, were prepared and 100 μl of each test solution was added to the wells of the 96-well plate containing the cells. A comparative solution containing only 0.5 mM ECG dissolved in Tyrodes buffer was also prepared and 100 μl was added to a well of the 96-well plate containing the cells.
Intracellular calcium levels were monitored using a Flexstation II 384. The 96-well plate was loaded onto the Flexstation II 384 and fluorescence measurements were carried out at 37° C. at an excitation wavelength of 485 nm and an emission wavelength of 520 nm. Activity of TA52R39 was measured as the change in fluorescence (ΔF) which was calculated by subtracting the […] measured before addition of the test or comparative solution.
Inhibition of TAS2R39 activity was measured as the percentage reduction of ΔF in the presence of ECG alone, compared to ΔF in the presence of ECG plus a test compound. 3,4,5-trihydroxybenzoic acid (gallic acid) was included in the selection of the test compounds.

COc1ccc(/C=C/C(=O)O)c(OC)c1 [2,4-dimethoxycinnamic acid]
% inhibition of TAS2R39: 40%
effectiveness as inhibitor of TAS2R39 compared with gallic acid: more effective inhibitors of TAS2R39 than gallic acid

COc1cccc(C(=O)O)c1O [2-hydroxy-3-methoxybenzoic acid, reference compound]
% inhibition of TAS2R39: 25%

COc1ccccc1C(=O)O [2-methoxybenzoic acid, reference compound]
% inhibition of TAS2R39: 10%

COc1ccccc1/C=C/C(=O)O [2-methoxycinnamic acid, reference compound]
% inhibition of TAS2R39: 0%

O=C(O)c1cc(O)c(O)c(O)c1 [3,4,5-trihydroxybenzoic acid, reference compound]
% inhibition of TAS2R39: 25%

COc1cc(C(=O)O)cc(OC)c1OC [3,4,5-trimethoxybenzoic acid, reference compound]
% inhibition of TAS2R39: 20%

COc1cc(/C=C/C(=O)O)cc(OC)c1OC [3,4,5-trimethoxycinnamic acid, 3,4,5-trimethoxycinnamic acid]
% inhibition of TAS2R39: 70%
effectiveness as inhibitor of TAS2R39 compared with gallic acid: more effective inhibitors of TAS2R39 than gallic acid

COc1cc(CC(=O)O)cc(OC)c1OC [3,4,5-trimethoxyphenylacetic acid, reference compound]
% inhibition of TAS2R39: 25%

O=C(O)c1ccc(O)c(O)c1 [3,4-dihydroxybenzoic acid, reference compound]
% inhibition of TAS2R39: 15%

O=C(O)/C=C/c1ccc(O)c(O)c1 [3,4-dihydroxycinnamic acid]
% inhibition of TAS2R39: 30%
effectiveness as inhibitor of TAS2R39 compared with gallic acid: more effective inhibitors of TAS2R39 than gallic acid

O=C(O)Cc1ccc(O)c(O)c1 [3,4-dihydroxyphenylacetic acid, reference compound]
% inhibition of TAS2R39: 15%

COc1ccc(C(=O)O)cc1OC [3,4-dimethoxybenzoic acid, reference compound]
% inhibition of TAS2R39: 10%

COc1ccc(/C=C/C(=O)O)cc1OC [3,4-dimethoxycinnamic acid]
effectiveness as inhibitor of TAS2R39 compared with gallic acid: more effective inhibitors of TAS2R39 than gallic acid

COc1cc(/C=C/C(=O)O)cc(OC)c1 [3,5-dimethoxycinnamic acid, reference compound]
% inhibition of TAS2R39: 20%

COc1cc(CCC(=O)O)cc(OC)c1OC [3-(3,4,5-trimethoxyphenyl)propanoic acid]
% inhibition of TAS2R39: 35%
effectiveness as inhibitor of TAS2R39 compared with gallic acid: more effective inhibitors of TAS2R39 than gallic acid

O=C(O)CCc1ccc(O)c(O)c1 [3-(3,4-dihydroxyphenyl) propanoic acid, 3-(3,4-dihydroxyphenyl)propanoic acid]
% inhibition of TAS2R39: 30%
effectiveness as inhibitor of TAS2R39 compared with gallic acid: more effective inhibitors of TAS2R39 than gallic acid

COc1ccc(CCC(=O)O)cc1OC [3-(3,4-dimethoxyphenyl) propanoic acid, 3-(3,4-dimethoxyphenyl)propanoic acid]
% inhibition of TAS2R39: 35%
effectiveness as inhibitor of TAS2R39 compared with gallic acid: more effective inhibitors of TAS2R39 than gallic acid

COc1cc(CCC(=O)O)ccc1O [3-(3-methoxy-4-hydroxyphenyl)propanoic acid]
% inhibition of TAS2R39: 35%
effectiveness as inhibitor of TAS2R39 compared with gallic acid: more effective inhibitors of TAS2R39 than gallic acid

O=C(O)CCc1ccc(O)cc1 [3-(4-hydroxyphenyl) propanoic acid, reference compound]
% inhibition of TAS2R39: 25%

COc1ccc(CCC(=O)O)cc1 [3-(4-methoxyphenyl) propanoic acid, 3-(4-methoxyphenyl)propanoic acid]
% inhibition of TAS2R39: 40%
effectiveness as inhibitor of TAS2R39 compared with gallic acid: more effective inhibitors of TAS2R39 than gallic acid

COc1cc(/C=C/C(=O)O)ccc1O [3-methoxy-4-hydroxycinnamic acid, 3-methoxy-4-hydroxycinnamic acid]
% inhibition of TAS2R39: 65%
effectiveness as inhibitor of TAS2R39 compared with gallic acid: more effective inhibitors of TAS2R39 than gallic acid

COc1cccc(C(=O)O)c1 [3-methoxybenzoic add, reference compound]
% inhibition of TAS2R39: 5%

COc1cccc(/C=C/C(=O)O)c1 [3-methoxycinnamic acid, reference compound]
% inhibition of TAS2R39: 0%

O=C(O)/C=C/c1ccccc1 [3-phenyl propenoic acid (Cinnamic acid), 3-phenyl propenoic acid]
% inhibition of TAS2R39: 40%
effectiveness as inhibitor of TAS2R39 compared with gallic acid: more effective inhibitors of TAS2R39 than gallic acid

O=C(O)CCc1ccccc1 [3-phenylpropanoic acid, reference compound]
% inhibition of TAS2R39: 15%

COc1cc(/C=C/C(=O)O)cc(OC)c1O [4-hydroxy-3,5-dimethoxycinnamic acid, 4-hydroxy-3,5-dimethoxycinnamic acid]
% inhibition of TAS2R39: 65%
effectiveness as inhibitor of TAS2R39 compared with gallic acid: more effective inhibitors of TAS2R39 than gallic acid

O=C(O)c1ccc(O)cc1 [4-hydroxybenzoic acid, reference compound]
% inhibition of TAS2R39: 25%

O=C(O)/C=C/c1ccc(O)cc1 [4-hydroxycinnamic acid]
% inhibition of TAS2R39: 40%
effectiveness as inhibitor of TAS2R39 compared with gallic acid: more effective inhibitors of TAS2R39 than gallic acid

O=C(O)Cc1ccc(O)cc1 [4-hydroxyphenylacetic acid, reference compound]
% inhibition of TAS2R39: 20%

COc1ccc(C(=O)O)cc1 [4-methoxybenzoic acid, reference compound]
% inhibition of TAS2R39: 15%

COc1ccc(/C=C/C(=O)O)cc1 [4-methoxycinnamic acid]
% inhibition of TAS2R39: 30%
effectiveness as inhibitor of TAS2R39 compared with gallic acid: more effective inhibitors of TAS2R39 than gallic acid

COc1ccc(CC(=O)O)cc1 [4-methoxyphenylacetic acid, reference compound]
% inhibition of TAS2R39: 15%

O=C(O)CCCc1ccccc1 [4-phenylbutanoic acid]
% inhibition of TAS2R39: 40%
effectiveness as inhibitor of TAS2R39 compared with gallic acid: more effective inhibitors of TAS2R39 than gallic acid

O=C(O)Cc1ccccc1 [Phenylacetic acid, reference compound]
% inhibition of TAS2R39: 5%

N[C@@H](Cc1ccccc1)C(=O)O [Phenylalamine, reference compound]
% inhibition of TAS2R39: 0%

Benzoic acid [reference compound]
% inhibition of TAS2R39: 20%
